# According to patent US10781184B2, “Substituted benzazinones as antibacterial compounds” (GlaxoSmithKline Intellectual Property Development Limited, priority 2015, dated 2020):
# Experiments:
# Test in all cases: Minimum Inhibitory Concentration Assay (broth microdilution, CLSI)
# Format in all cases: cell-based
# P. aeruginosa PA01 = conditions: Pseudomonas aeruginosa; strain PA01, broth microdilution; read-out: P. aeruginosa PA01 MIC
# Description: (§1) Methods for dilution Antimicrobial Susceptibility TestS for Bacteria that Grow Aerobically; Approved Standard-Ninth Edition; M7-A9, Vol. 32 No. 2, Clinical and Laboratory Standards Institute, Wayne, Pa.; January 2012.
# (§2) Performance Standards for Antimicrobial Susceptibility Testing; Twenty-Second Informational Supplement; M100-S22 Vol. 32 No. 3; Clinical and Laboratory Standards Institute, Wayne, Pa., January 2012.
# (§3) Broth microdilution was performed in accordance with the CLSI recommended procedures for aerobic bacteria [CLSI, 2012].
# (§4) Comparator compound stock solutions were prepared as recommended by CLSI [CLSI, 2012]. The stock solutions of novel GSK compounds were prepared at 512 mcg/mL by dissolving the compounds in dimethyl sulfoxide (DMSO) and diluting 1:10 with sterile water. The 512 mcg/mL stock was further serially diluted in the recommended broth media for the organisms being tested. Final DMSO concentration in test wells was less than 1%.
# (§5) Microtitre plates were prepared using the Microlab STAR™ (Hamilton Co., Reno, Nev.) to add media (50 μL) and the Microlab AT Plus system (Hamilton Co., Reno, Nev.) to serially dilute the compounds (final concentration range 0.125 to 128 mcg/mL) and to add inoculum. A positive growth control well containing medium and the test isolate was included on each microtitre plate. Ten microliters of the test medium from the positive growth control well was plated to determine the purity of each test isolate. A microtitre mirror reader (Cooke Instruments, Ltd., England) was used to assist in determining the microdilution MIC endpoints. The MIC was determined as the lowest concentration of compound that inhibited visible growth of the organism.
# E. coli 7623 = conditions: Escherichia coli; strain 7623, broth microdilution; read-out: E. coli 7623 MIC
# Description: as §1, §2, §3, §4, §5
# K. pneumoniae 1161486 = conditions: Klebsiella pneumoniae; strain 1161486, broth microdilution; read-out: K. pneumoniae 1161486 MIC
# Description: as §1, §2, §3, §4, §5
MIC (P. aeruginosa PA01),MIC (E. coli 7623),MIC (K. pneumoniae 1161486),SMILES
4 µg/mL,0.125 µg/mL,0.5 µg/mL,"C[C@@](CCn1cnc2cc(-c3ccc(CN4CCOCC4)cc3F)c(F)cc2c1=O)(C(=O)NO)S(C)(=O)=O [Example 26, (2R)-4-(6-fluoro-7-{2-fluoro-4-[(morpholin-4-yl)methyl]phenyl}4-oxo-3,4-dihydroquinazolin-3-yl)-N-hydroxy-2-methanesulfonyl-2-methylbutanamide]"
2 µg/mL,< 0.03 µg/mL,1 µg/mL,"C[C@@](CCn1cnc2cc(-c3ccc(CCO)cc3F)c(F)cc2c1=O)(C(=O)NO)S(C)(=O)=O [Example 27, (2R)-4-{6-fluoro-7-[2-fluoro-4-(2-hydroxyethyl)phenyl]-4-oxo-3,4-dihydroquinazolin-3-yl}-N-hydroxy-2-methanesulfonyl-2-methylbutanamide]"
0.5 µg/mL,< 0.03 µg/mL,0.125 µg/mL,"C[C@@](CCn1cnc2cc(-c3ccc(CCO)cc3)c(F)cc2c1=O)(C(=O)NO)S(C)(=O)=O [Example 28, (2R)-4-(6-fluoro-7-[4-(2-hydroxyethyl)phenyl]-4-oxo-3,4-dihydroquinazolin-3-yl)-N-hydroxy-2-methanesulfonyl-2-methylbutanamide]"
4 µg/mL,0.5 µg/mL,0.5 µg/mL,"Cc1c(-c2ccc(CN3CCOCC3)cc2)ccc2c(=O)n(CC[C@](C)(C(=O)NO)S(C)(=O)=O)cnc12 [Example 29, (2R)—N-hydroxy-2-methanesulfonyl-2-methyl-4-(8-methyl-7-{4-[(morpholin-4-yl)methyl]phenyl}-4-oxo-3,4-dihydroquinazolin-3-yl)butanamide]"
16 µg/mL,0.25 µg/mL,1 µg/mL,"COc1ccc(-c2cc3ncn(CC[C@](C)(C(=O)NO)S(C)(=O)=O)c(=O)c3cc2F)cn1 [Example 30, (2R)-4-[6-fluoro-7-(6-methoxypyridin-3-yl)-4-oxo-3,4-dihydroquinazolin-3-yl]-N-hydroxy-2-methanesulfonyl-2-methylbutanamide]"
2 µg/mL,0.063 µg/mL,0.25 µg/mL,"C[C@@](CCn1cnc2cc(-c3ccccc3)c(F)cc2c1=O)(C(=O)NO)S(C)(=O)=O [Example 31, (2R)-4-(6-fluoro-4-oxo-7-phenyl-3,4-dihydroquinazolin-3-yl)-N-hydroxy-2-methanesulfonyl-2-methylbutanamide]"
4 µg/mL,0.125 µg/mL,0.5 µg/mL,"C[C@@](CCn1cnc2cc(-c3ccc4c(c3)COC4)c(F)cc2c1=O)(C(=O)NO)S(C)(=O)=O [Example 32, (2R)-4-[7-(1,3-dihydro-2-benzofuran-5-yl)-6-fluoro-4-oxo-3,4-dihydroquinazolin-3-yl]-N-hydroxy-2-methanesulfonyl-2-methylbutanamide]"
8 µg/mL,< 0.03 µg/mL,0.5 µg/mL,"CN(C)c1ccc(-c2cc3ncn(CC[C@](C)(C(=O)NO)S(C)(=O)=O)c(=O)c3cc2F)cn1 [Example 33, (2R)-4-{7-[6-(dimethylamino)pyridin-3-yl]-6-fluoro-4-oxo-3,4-dihydroquinazolin-3-yl}-N-hydroxy-2-methanesulfonyl-2-methylbutanamide]"
4 µg/mL,< 0.03 µg/mL,0.25 µg/mL,"CC(=O)OCCc1ccc(-c2cc3ncn(CC[C@](C)(C(=O)NO)S(C)(=O)=O)c(=O)c3cc2F)cc1 [Example 34, 2-(4-{6-fluoro-3-[(3R)-3-(hydroxycarbamoyl)-3-methanesulfonyl-3-methylpropyl]-4-oxo-3,4-dihydroquinazolin-7-yl}phenyl)ethyl acetate]"
1 µg/mL,0.125 µg/mL,0.5 µg/mL,"C[C@@](CCn1cnc2cc(-c3ccc(CN4CCOCC4)cc3)ccc2c1=O)(C(=O)NO)S(C)(=O)=O [Example 35, (2R)—N-hydroxy-2-methanesulfonyl-2-methyl-4-(7-{4-[(morpholin-4-yl)methyl]phenyl}-4-oxo-3,4-dihydroquinazolin-3-yl)butanamide]"
1 µg/mL,0.125 µg/mL,1 µg/mL,"COCCN(C)Cc1ccc(-c2ccc3c(=O)n(CC[C@](C)(C(=O)NO)S(C)(=O)=O)cnc3c2)c(F)c1 [Example 36, (2R)-4-[7-(2-fluoro-4-{[(2-methoxyethyl)(methyl)amino]methyl}phenyl)-4-oxo-3,4-dihydroquinazolin-3-yl]-N-hydroxy-2-methanesulfonyl-2-methylbutanamide]"
2 µg/mL,0.063 µg/mL,0.5 µg/mL,"C[C@@](CCn1cnc2cc(-c3ccc(CN4CCOCC4)cc3F)ccc2c1=O)(C(=O)NO)S(C)(=O)=O [Example 37, (2R)-4-(7-{2-fluoro-4-[(morpholin-4-yl)methyl]phenyl}-4-oxo-3,4-dihydroquinazolin-3-yl)-N-hydroxy-2-methanesulfonyl-2-methylbutanamide]"
4 µg/mL,0.125 µg/mL,0.5 µg/mL,"COCCN(C)Cc1ccc(-c2ccc3c(=O)n(CC[C@](C)(C(=O)NO)S(C)(=O)=O)cnc3c2)c(F)c1F [Example 38, (2R)-4-[7-(2,3-difluoro-4-{[(2-methoxyethyl)(methyl)amino]methyl}phenyl)-4-oxo-3,4-dihydroquinazolin-3-yl]-N-hydroxy-2-methanesulfonyl-2-methylbutanamide]"
4 µg/mL,< 0.03 µg/mL,0.5 µg/mL,"CN(Cc1ccc(-c2ccc3c(=O)n(CC[C@](C)(C(=O)NO)S(C)(=O)=O)cnc3c2)cc1F)C1CC1 [Example 39, (2R)-4-[7-(4-{[cyclopropyl(methyl)amino]methyl}-3-fluorophenyl)-4-oxo-3,4-dihydroquinazolin-3-yl]-N-hydroxy-2-methanesulfonyl-2-methylbutanamide]"
4 µg/mL,0.5 µg/mL,0.5 µg/mL,"C[C@@](CCn1cnc2cc(-c3ccc(CN4CC(F)(F)C4)cc3F)ccc2c1=O)(C(=O)NO)S(C)(=O)=O [Example 40, (2R)-4-(7-{4-[(3,3-difluoroazetidin-1-yl)methyl]-2-fluorophenyl}-4-oxo-3,4-dihydroquinazolin-3-yl)-N-hydroxy-2-methanesulfonyl-2-methylbutanamide]"
2 µg/mL,0.125 µg/mL,2 µg/mL,"C[C@@](CCn1cnc2cc(-c3ccc(CNC4CC4)cc3F)ccc2c1=O)(C(=O)NO)S(C)(=O)=O [Example 41, (2R)-4-(7-{4-[(cyclopropylamino)methyl]-2-fluorophenyl}-4-oxo-3,4-dihydroquinazolin-3-yl)-N-hydroxy-2-methanesulfonyl-2-methylbutanamide]"
2 µg/mL,0.25 µg/mL,0.5 µg/mL,"C[C@@](CCn1cnc2cc(-c3ccc(CCN4CCOCC4)cc3F)ccc2c1=O)(C(=O)NO)S(C)(=O)=O [Example 43, (2R)-4-(7-{2-fluoro-4-[2-(morpholin-4-yl)ethyl]phenyl}-4-oxo-3,4-dihydroquinazolin-3-yl)-N-hydroxy-2-methanesulfonyl-2-methylbutanamide]"
1 µg/mL,0.125 µg/mL,1 µg/mL,"C[C@@](CCn1cnc2cc(-c3ccc(CCO)cc3)ccc2c1=O)(C(=O)NO)S(C)(=O)=O [Example 44, (2R)—N-hydroxy-4-{7-[4-(2-hydroxyethyl)phenyl]-4-oxo-3,4-dihydroquinazolin-3-yl}-2-methanesulfonyl-2-methylbutanamide]"
